Measurements: PMC8536124 (International Journal of Molecular Sciences, 2021)
Like-named read-outs stand apart in the source and are kept apart here.

What was measured:
[1] = system: HCT-15; assay: NCI-60 screening (SRB); format: cell-based, human; conditions: five-dose
[2] = system: SW-620; assay: NCI-60 screening (SRB); format: cell-based, human; conditions: five-dose
[3] = system: NCI-H460; assay: NCI-60 screening (SRB); format: cell-based, human; conditions: five-dose
[4] = system: DU-145; assay: NCI-60 screening (SRB); format: cell-based, human; conditions: five-dose
[5] = system: COLO 205; assay: NCI-60 screening (SRB); format: cell-based, human; conditions: five-dose
[6] = system: NCI/ADR-RES; assay: NCI-60 screening (SRB); format: cell-based, human; conditions: five-dose
[7] = system: SF-539; assay: NCI-60 screening (SRB); format: cell-based, human; conditions: SF-539, five-dose
[8] = system: HOP-62; assay: NCI-60 screening (SRB); format: cell-based, human; conditions: five-dose
[9] = system: OVCAR-3; assay: NCI-60 screening (SRB); format: cell-based, human; conditions: five-dose
[10] = system: RPMI-8226; assay: NCI-60 screening (SRB); format: cell-based, human; conditions: five-dose
[11] = system: MOLT-4; assay: NCI-60 screening (SRB); format: cell-based, human; conditions: five-dose
[12] = system: MDA-MB-468; assay: NCI-60 screening (SRB); format: cell-based, human; conditions: five-dose
[13] = system: NCI-60 cancer cell line panel; assay: NCI-60 screening (SRB), full panel; format: cell-based, human; conditions: for activity at 10 µM: 60 cell lines, 48 h
Description: (§1) The experimental data allow the assessment of the cytostatic effect, indicated by growth inhibition values ranging between 0 and 100, as well as of the cytotoxic effect, indicated by negative values.
(§2) The mean GI50 (molar concentration of the compound that inhibits 50% net cell growth), TGI (molar concentration of the compound leading to the total inhibition), and LC50 (molar concentration of the compound leading to 50% net cell death (presented in negative logarithm)) values across each cell line are shown in Table 2.
(§3) The selectivity index (SI), calculated as the ratio between the full panel MG_MID60 (μM) of compounds 4, 6, and 9 by their respective subpanels MG_MID of the cell line (μM), was introduced as a quantification tool for the selectivity of each compound in terms of anticancer effect (Table 3).
(§4) Primary anticancer assays were performed according to the NCI protocol, as described elsewhere (see e.g., http://dtp.nci.nih.gov accessed on 1 November 2018). The compounds were added at a single concentration, and the cell cultures were incubated for 48 h. The end point determinations were made with a protein-binding dye, sulforhodamine B (SRB). […] The percentage of growth was evaluated spectrophotometrically versus controls not treated with test agents after 48 h exposure and using SRB protein assay to estimate cell viability or growth. Three antitumor activity dose-response parameters were calculated for each cell line. Furthermore, mean graph midpoints (MG_MID) were calculated for each of the parameters, giving an average activity parameter over all cell lines for the tested compound. For the MG_MID calculation, insensitive cell lines were included with the highest concentration tested.

[14] = system: T-47D; assay: NCI-60 screening (SRB); format: cell-based, human; conditions: five-dose
[15] = system: MDA-MB-435; assay: NCI-60 screening (SRB); format: cell-based, human; conditions: five-dose
[16] = system: SN12C; assay: NCI-60 screening (SRB); format: cell-based, human; conditions: five-dose
[17] = system: SF-295; assay: NCI-60 screening (SRB); format: cell-based, human; conditions: five-dose
[18] = system: HCC-2998; assay: NCI-60 screening (SRB); format: cell-based, human; conditions: five-dose
[19] = system: A498; assay: NCI-60 screening (SRB); format: cell-based, human; conditions: A498, five-dose
[20] = system: HOP-92; assay: NCI-60 screening (SRB); format: cell-based, human; conditions: five-dose
[21] = system: CNS cancer; assay: cells; format: cell-based
Description: as §1, §2, §3, §4

[22] = system: Breast cancer; assay: NCI-60 screening (SRB), subpanel; format: cell-based
Description: as §1, §2, §3, §4

[23] = system: Ovarian cancer; assay: NCI-60 screening (SRB), subpanel; format: cell-based
Description: as §1, §2, §3, §4

[24] = system: SK-MEL-5; assay: NCI-60 screening (SRB); format: cell-based, human; conditions: SK-MEL-5, five-dose
[25] = system: EKVX; assay: NCI-60 screening (SRB); format: cell-based, human; conditions: five-dose
[26] = Homo sapiens, read-out: LC50 (the source's name)

CCN1CCN(C(=O)[C@]23CC[C@@H](C)[C@H](C)[C@H]2C2=CC[C@@H]4[C@@]5(C)C/C(=C/c6cccnc6)C(=O)C(C)(C)[C@@H]5CC[C@@]4(C)[C@]2(C)CC3)CC1 [Compound 9, N-(2-{3-Pyridinylidene}-3-oxoursan-12-en-28-oyl)-ethylpiperazine]
GI50 ([1]; Homo sapiens): 1.66 µM
CC50 [1, 26]: 6.41 µM
TGI [1]: 3.26 µM
GI50 ([2]; Homo sapiens): 1.9 µM
CC50 [2, 26]: 9.05 µM
TGI [2]: 4.14 µM
GI50 ([3]; Homo sapiens): 1.78 µM
CC50 [3, 26]: 6.69 µM
TGI [3]: 3.45 µM
GI50 ([4]; Homo sapiens): 2.08 µM
CC50 [4, 26]: 8.53 µM
TGI [4]: 4.21 µM
GI50 ([5]; Homo sapiens): 2.19 µM
CC50 [5, 26]: > 100 µM
TGI [5]: 5.12 µM
GI50 ([6]; Homo sapiens): 1.59 µM
CC50 [6, 26]: 6.91 µM
TGI [6]: 3.31 µM
GI50 ([7]; Homo sapiens): 1.66 µM
CC50 [7, 26]: 5.58 µM
TGI [7]: 3.05 µM
GI50 ([8]; Homo sapiens): 2.43 µM
LC50 ([8]; Homo sapiens): > 100 µM
TGI [8]: 5.86 µM
GI50 ([9]; Homo sapiens): 1.65 µM
CC50 [9, 26]: 6.17 µM
TGI [9]: 3.19 µM
GI50 ([10]; Homo sapiens): 2.45 µM
CC50 [10, 26]: > 100 µM
TGI [10]: 7.38 µM
GI50 ([11]; Homo sapiens): 2.63 µM
CC50 [11, 26]: > 100 µM
TGI [11]: 7.44 µM
GI50 ([12]; Homo sapiens): 1.65 µM
CC50 [12, 26]: 7.1 µM
TGI [12]: 3.43 µM
Positive Cytostatic Effect (cell lines with percent growth 0 to 50 / total) ([13]; 1 dose 10 µM): 33/59
Positive Cytotoxic Effect (cell lines with percent growth <0 / total) ([13]; 1 dose 10 µM): 5/59
GI50 ([13]; Homo sapiens, five-dose, bound, read-out: GI50 against all human tumor cells): < 4 µM
GI50 ([13]; Homo sapiens, mean graph midpoint, full panel, five-dose, read-out: GI50 MG_MID60): 1.93 µM
CC50 ([13]; Homo sapiens, mean graph midpoint, full panel, five-dose, read-out: LC50 MG_MID60): 38 µM
activity at 10 µM ([13]; Homo sapiens, 1 dose 10 µM, read-out: Mean Growth, %): 25.3%
activity at 10 µM ([13]; Homo sapiens, 1 dose 10 µM, read-out: Range of Growth, %): -38.2 to 65.7%
TGI MG_MID60 ([13]; mean graph midpoint, full panel, five-dose): 5.29 µM
selectivity class ([13]; toward some individual cell lines at the LC50 level): moderate selectivity (Ratios between 3 and 6 are indicators of moderate selectivity)
GI50 ([14]; Homo sapiens, T47D): 2.79 µM
LC50 (concentration killing 50% of cells) ([14]; Homo sapiens, T47D): > 100 µM
TGI [14]: 13.4 µM
GI50 ([15]; Homo sapiens): 1.7 µM
CC50 [15, 26]: 7.18 µM
TGI [15]: 3.49 µM
GI50 ([16]; Homo sapiens): 1.61 µM
CC50 [16, 26]: 5.66 µM
TGI [16]: 3.01 µM
GI50 ([17]; Homo sapiens): 1.63 µM
CC50 [17, 26]: 5.7 µM
TGI [17]: 3.05 µM
GI50 ([18]; Homo sapiens): 1.55 µM
CC50 [18, 26]: 5.79 µM
TGI [18]: 3.00 µM
TGI [19]: 4.05 µM
GI50 ([19]; Homo sapiens): 1.9 µM
CC50 [19, 26]: 8.65 µM
GI50 ([20]; Homo sapiens): 1.57 µM
CC50 [20, 26]: 38.8 µM
TGI [20]: 5.73 µM
TGI MG_MID ([21]; CNS cancer subpanel, five-dose): 4.41 µM
SI (TGI) ([21]; CNS cancer, MG_MID60/subpanel MG_MID): 1.20
GI50 ([21]; Homo sapiens, CNS cancer subpanel, five-dose, read-out: GI50 MG_MID): 1.71 µM
CC50 ([21]; Homo sapiens, CNS cancer subpanel, five-dose, read-out: LC50 MG_MID): 13.6 µM
TGI MG_MID ([22]; Breast cancer subpanel, five-dose): 5.37 µM
SI (TGI) ([22]; Breast cancer, MG_MID60/subpanel MG_MID): 0.98
GI50 ([22]; Homo sapiens, Breast cancer subpanel, five-dose, read-out: GI50 MG_MID): 1.91 µM
CC50 ([22]; Homo sapiens, Breast cancer subpanel, five-dose, read-out: LC50 MG_MID): 36.9 µM
GI50 ([23]; Homo sapiens, Ovarian cancer subpanel, five-dose, read-out: GI50 MG_MID): 2.04 µM
CC50 ([23]; Homo sapiens, Ovarian cancer subpanel, five-dose, read-out: LC50 MG_MID): 36.2 µM
SI (TGI) ([23]; Ovarian Cancer, MG_MID60/subpanel MG_MID): 1.02
TGI MG_MID ([23]; Ovarian cancer subpanel, five-dose): 5.16 µM
GI50 ([24]; Homo sapiens): 1.75 µM
CC50 [24, 26]: 5.63 µM
TGI [24]: 3.14 µM
GI50 ([25]; Homo sapiens): 2.17 µM
LC50 ([25]; Homo sapiens): 61.7 µM
TGI [25]: 7.32 µM
